Measured values published in patent US7601716B2, “Pyridopyrazines and derivatives thereof as ALK and c-Met inhibitors” (Cephalon, Inc., priority 2006, dated 2009).

Molecular target: baculovirus-expressed ALK (Homo sapiens, UniProt Q9UM73)
Test: ALK Kinase Assay (ELISA/TRF, PLC-γ substrate); also: 1 µM ATP (Km level)
Type: biochemical
Settings: read-out: ALK Kinase Inhibition (IC50)
In short: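 Plates coated with GST–PLC-γ fusion substrate (10 μg/mL in TBS); reaction started with 30 ng/ml ALK, run 15 minutes at 37° C. Phosphotyrosine detected by Eu-N1 PT66 antibody (1 hour, 37° C) and time-resolved fluorescence after enhancement. IC50 from sigmoidal variable-slope fit of percent inhibition versus log concentration.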

Chain of baculovirus-expressed ALK (Q9UM73 19-1620): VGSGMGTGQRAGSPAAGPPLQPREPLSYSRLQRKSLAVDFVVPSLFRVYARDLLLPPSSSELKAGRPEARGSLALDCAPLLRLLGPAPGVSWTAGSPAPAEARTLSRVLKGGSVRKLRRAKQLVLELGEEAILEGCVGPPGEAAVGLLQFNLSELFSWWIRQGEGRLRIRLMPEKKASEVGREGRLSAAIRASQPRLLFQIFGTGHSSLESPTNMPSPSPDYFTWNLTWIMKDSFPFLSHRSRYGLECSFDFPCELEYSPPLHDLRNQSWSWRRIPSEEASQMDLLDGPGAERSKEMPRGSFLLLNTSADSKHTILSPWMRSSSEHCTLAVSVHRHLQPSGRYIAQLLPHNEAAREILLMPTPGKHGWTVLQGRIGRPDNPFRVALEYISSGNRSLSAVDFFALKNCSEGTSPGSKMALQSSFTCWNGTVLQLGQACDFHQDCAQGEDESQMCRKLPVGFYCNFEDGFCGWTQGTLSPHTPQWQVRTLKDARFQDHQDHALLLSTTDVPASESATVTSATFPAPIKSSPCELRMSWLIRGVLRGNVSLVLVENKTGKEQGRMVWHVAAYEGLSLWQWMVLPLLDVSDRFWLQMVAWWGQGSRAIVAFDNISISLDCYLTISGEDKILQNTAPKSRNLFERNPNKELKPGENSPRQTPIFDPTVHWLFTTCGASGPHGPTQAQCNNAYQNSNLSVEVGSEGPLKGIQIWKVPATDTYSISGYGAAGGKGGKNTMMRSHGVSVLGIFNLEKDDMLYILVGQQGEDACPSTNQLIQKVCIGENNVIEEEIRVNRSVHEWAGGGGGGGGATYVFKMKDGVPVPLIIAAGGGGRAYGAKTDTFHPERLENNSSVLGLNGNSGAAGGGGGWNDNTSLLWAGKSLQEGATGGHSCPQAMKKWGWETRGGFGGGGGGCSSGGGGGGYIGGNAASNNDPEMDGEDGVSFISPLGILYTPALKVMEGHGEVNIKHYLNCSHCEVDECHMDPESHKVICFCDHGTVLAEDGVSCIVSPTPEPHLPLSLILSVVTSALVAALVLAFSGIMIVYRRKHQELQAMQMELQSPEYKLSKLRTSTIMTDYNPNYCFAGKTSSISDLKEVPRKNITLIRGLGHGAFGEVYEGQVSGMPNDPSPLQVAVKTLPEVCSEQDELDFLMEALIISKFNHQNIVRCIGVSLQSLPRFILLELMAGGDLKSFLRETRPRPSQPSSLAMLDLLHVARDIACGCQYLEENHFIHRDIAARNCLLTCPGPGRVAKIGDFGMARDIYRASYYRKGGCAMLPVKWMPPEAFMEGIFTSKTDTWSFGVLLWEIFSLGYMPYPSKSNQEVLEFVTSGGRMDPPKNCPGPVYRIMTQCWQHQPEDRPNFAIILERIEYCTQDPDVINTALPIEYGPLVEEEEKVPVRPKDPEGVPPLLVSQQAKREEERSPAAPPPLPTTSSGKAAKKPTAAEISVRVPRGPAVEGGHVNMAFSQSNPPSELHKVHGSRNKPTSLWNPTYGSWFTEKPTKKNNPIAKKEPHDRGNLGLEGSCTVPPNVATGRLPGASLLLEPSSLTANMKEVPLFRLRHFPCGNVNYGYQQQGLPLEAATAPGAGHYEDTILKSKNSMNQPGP

| Structure (SMILES) | IC50 |
| --- | --- |
| NS(=O)(=O)c1ccc(CCNC(=O)c2ccc(-c3cnc4c(c3)N(Cc3cc(Cl)ccc3C(F)(F)F)CCN4)cc2)cc1 [Example 405, 4-{1-[5-Chloro-2-(trifluoromethyl)benzyl]-1,2,3,4-tetrahydropyrido[2,3-b]pyrazin-7-yl}-N-[2-(4-sulfamoylphenyl)ethyl]benzamide] | 100 to 1000 nM |
| O=C(NCc1ccc(Cl)cc1)c1ccc(-c2cnc3c(c2)N(Cc2cc(Cl)ccc2C(F)(F)F)CCN3)cc1 [Example 413, N-(4-Chlorobenzyl)-4-{1-[5-chloro-2-(trifluoromethyl)benzyl]-1,2,3,4-tetrahydropyrido[2,3-b]pyrazin-7-yl}benzamide] | 100 to 1000 nM |
| O=C(NCC1CCCO1)c1cccc(-c2cnc3c(c2)N(Cc2cc(Cl)ccc2C(F)(F)F)CCN3)c1 (stereo not shown) [Example 352, 3-{1-[5-Chloro-2-(trifluoromethyl)benzyl]-1,2,3,4-tetrahydropyrido[2,3-b]pyrazin-7-yl}-N-(tetrahydrofuran-2-ylmethyl)benzamide] | 100 to 1000 nM |
| NS(=O)(=O)c1ccc(CNC(=O)c2ccc(-c3cnc4c(c3)N(Cc3cc(Cl)ccc3C(F)(F)F)CCN4)cc2)cc1 [Example 429, 4-{1-[5-Chloro-2-(trifluoromethyl)benzyl]-1,2,3,4-tetrahydropyrido[2,3-b]pyrazin-7-yl}-N-(4-sulfamoylbenzyl)benzamide] | 100 to 1000 nM |
| O=C(c1cccc(-c2cnc3c(c2)N(Cc2cc(Cl)ccc2C(F)(F)F)CCN3)c1)N1CCN(c2nccc3occc23)CC1 [Example 324, (3-{1-[5-Chloro-2-(trifluoromethyl)benzyl]-1,2,3,4-tetrahydropyrido[2,3-b]pyrazin-7-yl}phenyl)-(4-furo[3,2-c]pyridin-4-ylpiperazin-1-yl)methanone] | 100 to 1000 nM |
| O=C(NCc1ccccc1)c1cccc(-c2cnc3c(c2)N(Cc2cc(Cl)ccc2C(F)(F)F)CCN3)c1 [Example 356, N-Benzyl-3-{1-[5-Chloro-2-(trifluoromethyl)benzyl]-1,2,3,4-tetrahydropyrido[2,3-b]pyrazin-7-yl}benzamide] | 100 to 1000 nM |
| O=C(c1cccc(-c2cnc3c(c2)N(Cc2cc(Cl)ccc2C(F)(F)F)CCN3)c1)N1CCC(O)(c2ccc(Cl)cc2)CC1 [Example 309, [4-(4-Chlorophenyl)-4-hydroxypiperidin-1-yl]-(3-{1-[5-Chloro-2-(trifluoromethyl)benzyl]-1,2,3,4-tetrahydropyrido[2,3-b]pyrazin-7-yl}phenyl)methanone] | 100 to 1000 nM |
| O=C(NC1Cc2ccccc2C1)c1cccc(-c2cnc3c(c2)N(Cc2cc(Cl)ccc2C(F)(F)F)CCN3)c1 [Example 358, 3-{1-[5-Chloro-2-(trifluoromethyl)benzyl]-1,2,3,4-tetrahydropyrido[2,3-b]pyrazin-7-yl}-N-indan-2-ylbenzamide] | 100 to 1000 nM |
| O=C(c1cccc(-c2cnc3c(c2)N(Cc2cc(Cl)ccc2C(F)(F)F)CCN3)c1)N1CCOCC1 [Example 341, (3-{1-[5-Chloro-2-(trifluoromethyl)benzyl]-1,2,3,4-tetrahydropyrido[2,3-b]pyrazin-7-yl}phenyl)morpholin-4-ylmethanone] | 100 to 1000 nM |
| O=C(NCc1ccc(-c2ccccc2)cc1)c1ccc(-c2cnc3c(c2)N(Cc2cc(Cl)ccc2C(F)(F)F)CCN3)cc1 [Example 425, N-Biphenyl-4-ylmethyl-4-{1-[5-Chloro-2-(trifluoromethyl)benzyl]-1,2,3,4-tetrahydropyrido[2,3-b]pyrazin-7-yl}benzamide] | 1000 to 10000 nM |
| O=C(c1cccc(-c2cnc3c(c2)N(Cc2cc(Cl)ccc2C(F)(F)F)CCN3)c1)N1CCN(c2ccc(Cl)c(Cl)c2)CC1 [Example 317, (3-{1-[5-Chloro-2-(trifluoromethyl)benzyl]-1,2,3,4-tetrahydropyrido[2,3-b]pyrazin-7-yl}phenyl)-[4-(3,4-dichlorophenyl)piperazin-1-yl]methanone] | 100 to 1000 nM |
| O=C(c1ccc(-c2cnc3c(c2)N(Cc2cc(Cl)ccc2C(F)(F)F)CCN3)cc1)N1CCC(Cc2ccccc2)CC1 [Example 378, (4-Benzylpiperidin-1-yl)-(4-{1-[5-chloro-2-(trifluoromethyl)benzyl]-1,2,3,4-tetrahydropyrido[2,3-b]pyrazin-7-yl}phenyl)methanone] | 1000 to 10000 nM |
| O=C(NCc1csc(-c2ccccc2)n1)c1cccc(-c2cnc3c(c2)N(Cc2cc(Cl)ccc2C(F)(F)F)CCN3)c1 [Example 340, 3-{1-[5-Chloro-2-(trifluoromethyl)benzyl]-1,2,3,4-tetrahydropyrido[2,3-b]pyrazin-7-yl}-N-(2-phenylthiazol-4-ylmethyl)benzamide] | 100 to 1000 nM |

Other lines, results leading:

| IC50 | Structure (SMILES) |
| --- | --- |
| 100 to 1000 nM | O=C(NCC1CCCO1)c1ccc(-c2cnc3c(c2)N(Cc2cc(Cl)ccc2C(F)(F)F)CCN3)cc1 (stereo not shown) [Example 417, 4-{1-[5-Chloro-2-(trifluoromethyl)benzyl]-1,2,3,4-tetrahydropyrido[2,3-b]pyrazin-7-yl}-N-(tetrahydrofuran-2-ylmethyl)benzamide] |
| 100 to 1000 nM | NS(=O)(=O)c1ccc(CNC(=O)c2cccc(-c3cnc4c(c3)N(Cc3cc(Cl)ccc3C(F)(F)F)CCN4)c2)cc1 [Example 363, 3-{1-[5-Chloro-2-(trifluoromethyl)benzyl]-1,2,3,4-tetrahydropyrido[2,3-b]pyrazin-7-yl}-N-(4-sulfamoylbenzyl)benzamide] |
| 100 to 1000 nM | O=C(c1ccc(-c2cnc3c(c2)N(Cc2cc(Cl)ccc2C(F)(F)F)CCN3)cc1)N1CCC(c2noc3cc(F)ccc23)CC1 [Example 387, (4-{1-[5-Chloro-2-(trifluoromethyl)benzyl]-1,2,3,4-tetrahydropyrido[2,3-b]pyrazin-7-yl}phenyl)-[4-(6-fluorobenzo[d]isoxazol-3-yl)-piperidin-1-yl]methanone] |
| 100 to 1000 nM | O=C(NCc1ccc(Cl)cc1)c1cccc(-c2cnc3c(c2)N(Cc2cc(Cl)ccc2C(F)(F)F)CCN3)c1 [Example 349, N-(4-Chlorobenzyl)-3-{1-[5-Chloro-2-(trifluoromethyl)benzyl]-1,2,3,4-tetrahydropyrido[2,3-b]pyrazin-7-yl}benzamide] |
| 100 to 1000 nM | O=C(NCc1cccc2ccccc12)c1cccc(-c2cnc3c(c2)N(Cc2cc(Cl)ccc2C(F)(F)F)CCN3)c1 [Example 342, 3-{1-[5-Chloro-2-(trifluoromethyl)benzyl]-1,2,3,4-tetrahydropyrido[2,3-b]pyrazin-7-yl}-N-naphthalen-1-ylmethylbenzamide] |
| 100 to 1000 nM | O=C(c1cccc(-c2cnc3c(c2)N(Cc2cc(Cl)ccc2C(F)(F)F)CCN3)c1)N1CCN(c2cccc(Cl)c2)CC1 [Example 357, [4-(3-Chlorophenyl)piperazin-1-yl]-(3-{1-[5-chloro-2-(trifluoromethyl)benzyl]-1,2,3,4-tetrahydropyrido[2,3-b]pyrazin-7-yl}phenyl)methanone] |
| 100 to 1000 nM | O=C(c1cccc(-c2cnc3c(c2)N(Cc2cc(Cl)ccc2C(F)(F)F)CCN3)c1)N1CCC(c2c[nH]c3ccccc23)CC1 [Example 314, (3-{1-[5-Chloro-2-(trifluoromethyl)benzyl]-1,2,3,4-tetrahydropyrido[2,3-b]pyrazin-7-yl}phenyl)-[4-(1H-indol-3-yl)piperidin-1-yl]methanone] |
| 100 to 1000 nM | CCOC(=O)N1CCC(NC(=O)c2cccc(-c3cnc4c(c3)N(Cc3cc(Cl)ccc3C(F)(F)F)CCN4)c2)CC1 [Example 326, 4-(3-{1-[5-Chloro-2-(trifluoromethyl)benzyl]-1,2,3,4-tetrahydropyrido[2,3-b]pyrazin-7-yl}benzoylamino)piperidine-1-carboxylic acid ethyl ester] |
| 100 to 1000 nM | O=C(NCc1ccncc1)c1ccc(-c2cnc3c(c2)N(Cc2cc(Cl)ccc2C(F)(F)F)CCN3)cc1 [Example 400, 4-{1-[5-Chloro-2-(trifluoromethyl)benzyl]-1,2,3,4-tetrahydropyrido[2,3-b]pyrazin-7-yl}-N-pyridin-4-ylmethylbenzamide] |
| 100 to 1000 nM | O=C(c1ccc(-c2cnc3c(c2)N(Cc2cc(Cl)ccc2C(F)(F)F)CCN3)cc1)N1CCOCC1 [Example 408, (4-{1-[5-Chloro-2-(trifluoromethyl)benzyl]-1,2,3,4-tetrahydropyrido[2,3-b]pyrazin-7-yl}phenyl)morpholin-4-ylmethanone] |
| 100 to 1000 nM | O=C(c1cccc(-c2cnc3c(c2)N(Cc2cc(Cl)ccc2C(F)(F)F)CCN3)c1)N1CCN(c2ncnc3ccsc23)CC1 [Example 320, (3-{1-[5-Chloro-2-(trifluoromethyl)benzyl]-1,2,3,4-tetrahydropyrido[2,3-b]pyrazin-7-yl}phenyl)-(4-thieno[3,2-d]pyrimidin-4-ylpiperazin-1-yl)methanone] |
| < 100 nM | CC(=O)N1CCN(C(=O)c2ccc(-c3cnc4c(c3)N(Cc3cc(Cl)ccc3C(F)(F)F)CCN4)cc2)CC1 [Example 392, 1-[4-(4-{1-[5-Chloro-2-(trifluoromethyl)benzyl]-1,2,3,4-tetrahydropyrido[2,3-b]pyrazin-7-yl}benzoyl)piperazin-1-yl]ethanone] |
| < 100 nM | COCCNC(=O)c1ccc(-c2cnc3c(c2)N(Cc2cc(Cl)ccc2C(F)(F)F)CCN3)cc1 [Example 404, 4-{1-[5-Chloro-2-(trifluoromethyl)benzyl]-1,2,3,4-tetrahydropyrido[2,3-b]pyrazin-7-yl}-N-(2-methoxyethyl)benzamide] |
| < 100 nM | O=C(c1ccc(-c2cnc3c(c2)N(Cc2cc(Cl)ccc2C(F)(F)F)CCN3)cc1)N1CCN(C(=O)C2CCCO2)CC1 (stereo not shown) [Example 415, (4-{1-[5-Chloro-2-(trifluoromethyl)benzyl]-1,2,3,4-tetrahydropyrido[2,3-b]pyrazin-7-yl}phenyl)-[4-(tetrahydrofuran-2-carbonyl)piperazin-1-yl]methanone] |
| < 100 nM | O=C(NC1CCN(Cc2ccccc2)CC1)c1cccc(-c2cnc3c(c2)N(Cc2cc(Cl)ccc2C(F)(F)F)CCN3)c1 [Example 327, N-(1-Benzylpiperidin-4-yl)-3-{1-[5-chloro-2-(trifluoromethyl)benzyl]-1,2,3,4-tetrahydropyrido[2,3-b]pyrazin-7-yl}benzamide] |
